# Patent EP0250254A1, “Cis & trans stilbenes and their composition for the treatment of hypertension” (McNeilab, Inc., priority 1986, dated 1987)
# Where a name gives a salt, the structure may show the parent alone. Read-outs that look alike come from different tables or passages of the source. Marks after values point to notes of the source that are not given here.
# Columns and labels:
# coronary arteries = assay: Langendorff's isolated heart preparation, increase in coronary flow; conditions: read-out: EC30 (minimum concentration needed to elicit a 30 percent increase in coronary flow)
# Experimental: In addition to their utility in the treatment of hypertension, the compounds of formula (I) are useful in the treatment of the symptoms of angina pectoris by virtue of their ability to dilate coronary arteries. Their activity was measured using the "Langendorff's isolated heart" preparation. This test has been described in "Pharmacological Experiments on Isolated Preparations", Staff of the Department of Pharmacology, University of Edinborough, 2nd Ed., Churchill Livingstone, N.Y., l970, pp. ll2-ll9. The test compounds were administered at concentrations of 3000, l000, 300, l00, 30, l0, 3, l and 0.3 nanomolar (l0⁻⁹ molar).
# The minimum concentration (EC₃₀) needed to elicit a 30 percent increase in coronary flow is shown in Table I for compounds of the formula (I) with […].
# [1] = test system: spontaneously hypertensive rats; assay: Spontaneously Hypertensive Rat (SHR) test, arterial pressure monitored via aortic cannula; format: in vivo; conditions: SH rats
# Experimental: The activity of compounds of formula (I) for the treatment of hypertension was determined using the Spontaneously Hypertensive Rat (SHR) test as described below.
# In this test, the arterial pressure of adult spontaneously hypertensive rats (Charles River) is monitored directly via an aortic cannula. The SH rats are anesthetized with an intravenous anesthetic (methohexital). The left carotid artery is isolated and cannulated. The tip of the cannula is advanced to the aorta and the cannula is exteriorized behind the neck at the level of the scapula. Animals are placed in individual cages and allowed to recover from the anesthetic and are kept unrestrained. The arterial cannula is connected to the pressure transducer which is attached to the recorder. The test compounds are administered to at least 3 rats at doses selected in the range of 0.l to l00 mg/kg of body weight by intraperitoneal (i.p.) or oral (p.o.) routes of administration. The arterial pressure and heart rate are monitored for a minimum of 22 hours. A test compound is considered to be active as an antihypertensive agent if the mean arterial pressure (MAp) indicates a fall of >l5 mm of Hg. Each animal serves as its own control.
# The results of this test for compounds of formula (I). expressed as "Max Fall Bp" (Maximum Fall in Mean Arterial pressure) are shown in Table I.
# [2] = dose 30 mg/kg of body weight p.o., salt form tested per footnotes
Compound,EC30 (coronary arteries; salt form tested per footnotes),"Max Fall BP (Maximum Fall in Mean Arterial pressure) [1, 2]","Max Fall BP (Maximum Fall in Mean Arterial pressure) ([1]; dose 10 mg/kg of body weight given i.p., tested as the fumarate salt)","Max Fall BP (Maximum Fall in Mean Arterial pressure) ([1]; dose 10 mg/kg of body weight p.o., tested as the chloride salt)",EC30 (coronary arteries; tested as free base)
"COc1ccc(/C=C\c2ccccc2)c(CC(C)NCCc2c(Cl)cccc2Cl)c1 (stereo not drawn) [Example 2d, N-[2-(2,6-Dichlorophenyl)ethyl]-5-methoxy-α-methyl-2Z-(2-phenylethenyl)benzeneethanamine (E)-2-Butenedioate (2:l)]",55 nM,18 (30) mm of Hg,,,
"COc1cc(CCNC(C)Cc2cc(OC)ccc2/C=C\c2ccccc2)cc(OC)c1 (stereo not drawn) [Example 3c, N-[2-(3,5-Dimethoxyphenyl)ethyl]-5-methoxy-α-methyl-2Z-(2-phenylethenyl)benzeneethanamine (E)-2-Butenedioate (2:l)]",57 nM,,38 (10)^b mm of Hg,,
"COc1ccc(/C=C\c2ccccc2)c(CC(C)NCCc2ccc(OC)c(OC)c2)c1 (stereo not drawn) [Example 4c, N-[2-(3,4-Dimethoxyphenyl)ethyl]-5-methoxy-α-methyl-2Z-(2-phenylethenyl)benzeneethanamine Hydrochloride]",2 nM,21 (30) mm of Hg,,,
"COc1ccc(/C=C/c2ccccc2)c(CCC(C)N(C)CCc2ccc(OC)c(OC)c2)c1 (stereo not drawn) [Example 5, N-[2-(3,4-Dimethoxyphenyl)ethyl]-5-methoxy-N,α-dimethyl-2E-(2-phenylethenyl)benezenepronanamine Hydrochloride]",12 nM,43 (30) mm of Hg,,,
"COc1ccc(/C=C\c2ccccc2)c(CCC(C)N(C)CCc2ccc(OC)c(OC)c2)c1 (stereo not drawn) [Example 6e, N-[2-(3,4-Dimethoxyphenyl)ethyl]-5-methoxy-N,α-dimethyl-2Z-(2-phenylethenyl)benzenepropanamine (E)-2-Butenedioate (2:l)]",19 nM,17 (30) mm of Hg,,,
"COc1ccc(/C=C/c2ccccc2)c(CCCN(C)CCc2ccc(OC)c(OC)c2)c1 [Example 7e, N-[2-(3,4-Dimethoxyphenyl)ethyl]-5-methoxy-N-methyl-2E-(2-phenylethenyl)benzenepropanamine Biscyclohexylsulfamate]",0.4 nM,16 (30) mm of Hg,,,
"COc1ccc(/C=C/c2ccccc2)c(CC(C)NCCc2ccc(OC)c(OC)c2)c1 (stereo not drawn) [Example 8b, N-[2-(3,4-Dimethoxyphenyl)ethyl]-5-methoxy-α-methyl-2E-(2-phenylethenyl)benzeneethanamine Hydrochloride]",1 nM,77 (30) mm of Hg,,80 (10) mm of Hg,
"COc1ccc(/C=C/c2ccccc2)c(CC(C)NCCc2ccc(Cl)c(Cl)c2)c1 (stereo not drawn) [Example 9, N-[2-(3,4-Dichlorophenyl)ethyl)-5-methoxy-α-methyl-2E-(2-phenylethenyl)benzeneethanamine Hydrochloride]",24 nM,90 (30) mm of Hg,,,
"COc1cc(CCNC(C)Cc2cc(OC)ccc2/C=C/c2ccccc2)cc(OC)c1 (stereo not drawn) [Example 10, N-[2-(3,5-Dimethoxyphenyl)ethyl]-5-methoxy-α-methyl-2E-(2-phenylethenyl)benzeneethanamine (E)-2-Butendioate (3:5)]",,53 (30)* mm of Hg,,,1 nM
